Molecules are shown by their SMILES.

From ChEMBL document CHEMBL5465560, “Selectivity Literature for EUbOPEN Chemogenomic Library” (2024) come the findings set out here.

Experiment [1] has as its target T1, Serine/threonine-protein kinase RIO3 (Homo sapiens) (UniProt O14730).
T1 sequence (whole entry): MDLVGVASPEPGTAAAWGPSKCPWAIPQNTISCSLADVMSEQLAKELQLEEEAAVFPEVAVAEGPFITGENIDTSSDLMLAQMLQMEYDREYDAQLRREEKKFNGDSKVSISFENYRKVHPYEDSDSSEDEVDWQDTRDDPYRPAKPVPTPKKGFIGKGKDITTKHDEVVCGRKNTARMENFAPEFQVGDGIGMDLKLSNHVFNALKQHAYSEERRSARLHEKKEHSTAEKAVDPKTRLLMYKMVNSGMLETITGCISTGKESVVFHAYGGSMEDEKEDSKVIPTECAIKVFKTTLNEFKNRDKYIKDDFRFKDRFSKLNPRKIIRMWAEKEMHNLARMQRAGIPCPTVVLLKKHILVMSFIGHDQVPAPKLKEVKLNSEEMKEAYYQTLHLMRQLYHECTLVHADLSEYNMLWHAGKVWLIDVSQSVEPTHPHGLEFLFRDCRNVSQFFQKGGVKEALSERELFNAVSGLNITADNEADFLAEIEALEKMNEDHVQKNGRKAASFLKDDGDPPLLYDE
Nature of the experiment: Selectivity interaction (KinomeScan (DiscoverX)) EUB0000595a RIOK3. The note with it: at 10 µM.

Experiment [2] addresses Vascular endothelial growth factor receptor 2 (Homo sapiens, UniProt P35968). Nature of the experiment: Selectivity interaction (KinomeScan (DiscoverX)) EUB0000666a KDR. The settings on record: at 10 µM.
Experiment [3] addresses Homeodomain-interacting protein kinase 3 (Homo sapiens, UniProt Q9H422). Nature of the experiment: Selectivity interaction (KinomeScan (DiscoverX)) EUB0000666a HIPK3. The note with it: at 10 µM.
Experiment [4] has as its target Insulin receptor (Homo sapiens, UniProt P06213). Nature of the experiment: Selectivity interaction (KinomeScan (DiscoverX)) EUB0000666a INSR. The note with it: at 10 µM.
The target in experiment [5] is Calcium/calmodulin-dependent protein kinase type II subunit beta (Homo sapiens) (UniProt Q13554). Nature of the experiment: Selectivity interaction (KinomeScan (DiscoverX)) EUB0000607a CAMK2B. The settings on record: at 10 µM.
Chain of Calcium/calmodulin-dependent protein kinase type II subunit beta (Homo sapiens) (Q13554 whole entry): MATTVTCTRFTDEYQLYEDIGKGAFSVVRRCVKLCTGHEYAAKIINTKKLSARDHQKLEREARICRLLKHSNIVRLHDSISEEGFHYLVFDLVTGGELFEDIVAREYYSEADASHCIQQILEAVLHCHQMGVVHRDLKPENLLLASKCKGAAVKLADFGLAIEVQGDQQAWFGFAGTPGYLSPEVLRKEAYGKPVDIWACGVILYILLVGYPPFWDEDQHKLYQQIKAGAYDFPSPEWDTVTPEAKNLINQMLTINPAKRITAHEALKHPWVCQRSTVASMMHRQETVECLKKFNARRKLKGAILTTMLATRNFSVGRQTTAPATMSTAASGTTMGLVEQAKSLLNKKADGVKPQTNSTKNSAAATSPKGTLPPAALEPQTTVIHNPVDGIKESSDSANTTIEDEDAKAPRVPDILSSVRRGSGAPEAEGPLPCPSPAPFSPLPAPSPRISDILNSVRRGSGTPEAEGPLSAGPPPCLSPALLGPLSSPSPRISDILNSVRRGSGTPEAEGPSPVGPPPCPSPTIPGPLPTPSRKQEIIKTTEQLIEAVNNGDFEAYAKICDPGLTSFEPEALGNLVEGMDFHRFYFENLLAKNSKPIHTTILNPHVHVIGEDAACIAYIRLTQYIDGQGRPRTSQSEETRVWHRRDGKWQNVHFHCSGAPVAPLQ
Experiment [6] deals with Homeodomain-interacting protein kinase 1 (Homo sapiens, UniProt Q86Z02). The experiment is described as follows: Selectivity interaction (Kinase panel (Invitrogen)) EUB0000639a HIPK1. The settings on record: at 200 nM.
Experiment [7] addresses T2, Mitogen-activated protein kinase kinase kinase kinase 2 (Homo sapiens) (UniProt Q12851).
T2 sequence (whole entry): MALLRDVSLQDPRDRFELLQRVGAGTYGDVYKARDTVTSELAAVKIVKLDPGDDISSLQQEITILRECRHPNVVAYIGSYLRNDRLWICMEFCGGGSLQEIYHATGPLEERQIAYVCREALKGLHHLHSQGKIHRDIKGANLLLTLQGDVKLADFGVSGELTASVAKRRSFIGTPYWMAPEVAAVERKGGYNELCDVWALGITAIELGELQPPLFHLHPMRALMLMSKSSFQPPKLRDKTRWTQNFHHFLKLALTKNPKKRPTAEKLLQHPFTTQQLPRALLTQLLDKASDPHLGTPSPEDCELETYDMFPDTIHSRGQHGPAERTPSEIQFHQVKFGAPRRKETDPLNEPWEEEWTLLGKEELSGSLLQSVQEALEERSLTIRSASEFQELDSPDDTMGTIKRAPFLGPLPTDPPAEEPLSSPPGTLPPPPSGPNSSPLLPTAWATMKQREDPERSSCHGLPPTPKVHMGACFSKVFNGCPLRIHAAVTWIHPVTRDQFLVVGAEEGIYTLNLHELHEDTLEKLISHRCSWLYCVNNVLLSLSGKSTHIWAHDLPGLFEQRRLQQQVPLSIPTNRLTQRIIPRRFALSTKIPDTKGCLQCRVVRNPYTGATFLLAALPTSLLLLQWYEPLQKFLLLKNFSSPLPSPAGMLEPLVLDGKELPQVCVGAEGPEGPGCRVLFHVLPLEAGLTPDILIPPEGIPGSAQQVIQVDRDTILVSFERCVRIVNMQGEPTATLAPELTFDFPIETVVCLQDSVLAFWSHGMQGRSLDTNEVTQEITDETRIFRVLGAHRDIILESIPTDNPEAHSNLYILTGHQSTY
The experiment is described as follows: Selectivity interaction (ActivX KiNativ screen (kinase selectivity in THP-1 cell lysates)) EUB0000639a MAP4K2. It is filed as subcellular. The note with it: lysate, at 0.01 µM.

Experiment [8] concerns the target Glycogen synthase kinase-3 beta (Homo sapiens, UniProt P49841). The experiment is described as follows: Selectivity interaction (Enzymatic assay) EUB0001199aCl GSK3B.
Experiment [9] concerns the target Mitogen-activated protein kinase 7 (Homo sapiens) (UniProt Q13164). Nature of the experiment: Selectivity interaction (ProQinase) EUB0000171b MAPK7.
Experiment [10] deals with Non-receptor tyrosine-protein kinase TYK2 (Homo sapiens, UniProt P29597). Nature of the experiment: Selectivity interaction (Kinase panel (33PanQinase(R) Activity Assay)) EUB0000877a TYK2.
Chain of Non-receptor tyrosine-protein kinase TYK2 (P29597 whole entry, canonical isoform): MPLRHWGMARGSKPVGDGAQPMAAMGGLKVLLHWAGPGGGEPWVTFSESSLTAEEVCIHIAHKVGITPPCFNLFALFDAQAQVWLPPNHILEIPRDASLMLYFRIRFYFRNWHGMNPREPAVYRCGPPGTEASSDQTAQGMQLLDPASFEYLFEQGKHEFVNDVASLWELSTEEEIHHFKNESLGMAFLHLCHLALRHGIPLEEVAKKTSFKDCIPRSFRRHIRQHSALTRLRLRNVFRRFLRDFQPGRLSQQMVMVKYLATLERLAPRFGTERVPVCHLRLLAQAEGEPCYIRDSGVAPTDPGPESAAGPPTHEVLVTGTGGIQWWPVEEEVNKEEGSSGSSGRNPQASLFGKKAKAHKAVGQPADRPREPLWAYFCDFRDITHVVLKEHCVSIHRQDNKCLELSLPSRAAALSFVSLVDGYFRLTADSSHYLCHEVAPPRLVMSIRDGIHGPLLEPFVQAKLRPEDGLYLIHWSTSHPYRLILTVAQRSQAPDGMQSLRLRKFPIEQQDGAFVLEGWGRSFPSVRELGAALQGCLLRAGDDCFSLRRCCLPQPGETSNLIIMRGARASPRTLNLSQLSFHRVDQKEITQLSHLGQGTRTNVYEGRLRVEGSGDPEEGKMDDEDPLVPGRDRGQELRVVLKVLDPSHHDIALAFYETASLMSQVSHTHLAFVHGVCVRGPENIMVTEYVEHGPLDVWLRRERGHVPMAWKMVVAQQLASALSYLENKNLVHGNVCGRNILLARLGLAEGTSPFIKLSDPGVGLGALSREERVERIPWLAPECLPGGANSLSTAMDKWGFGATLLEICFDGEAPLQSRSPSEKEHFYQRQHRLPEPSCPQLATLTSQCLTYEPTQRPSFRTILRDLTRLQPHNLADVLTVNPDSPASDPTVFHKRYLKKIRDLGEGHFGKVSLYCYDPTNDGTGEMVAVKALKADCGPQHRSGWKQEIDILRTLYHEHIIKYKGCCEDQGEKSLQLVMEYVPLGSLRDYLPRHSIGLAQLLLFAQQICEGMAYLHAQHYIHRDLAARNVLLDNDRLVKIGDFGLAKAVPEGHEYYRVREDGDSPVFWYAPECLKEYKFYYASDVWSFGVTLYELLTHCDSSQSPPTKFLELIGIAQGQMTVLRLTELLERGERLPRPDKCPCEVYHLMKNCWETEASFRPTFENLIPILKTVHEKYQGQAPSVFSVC
The subject of experiment [11] is Phosphatidylinositol 4,5-bisphosphate 3-kinase catalytic subunit alpha isoform (Homo sapiens), P42336 [C420R]. Nature of the experiment: (§1) Selectivity interaction (KinomeScan (DiscoverX)) EUB0000655a PIK3CA. The note with it: at 10 µM.
In experiment [12] the test system is Phosphatidylinositol 4,5-bisphosphate 3-kinase catalytic subunit alpha isoform (Homo sapiens), P42336 [M1043I]. The description is as §1. The settings on record: at 10 µM.
The test system of experiment [13] is Phosphatidylinositol 4,5-bisphosphate 3-kinase catalytic subunit alpha isoform (Homo sapiens), P42336 [I800L]. Described as §1. The note with it: at 10 µM.
Chain of Phosphatidylinositol 4,5-bisphosphate 3-kinase catalytic subunit alpha isoform (Homo sapiens), P42336 [I800L] (P42336 whole entry I800L, canonical isoform): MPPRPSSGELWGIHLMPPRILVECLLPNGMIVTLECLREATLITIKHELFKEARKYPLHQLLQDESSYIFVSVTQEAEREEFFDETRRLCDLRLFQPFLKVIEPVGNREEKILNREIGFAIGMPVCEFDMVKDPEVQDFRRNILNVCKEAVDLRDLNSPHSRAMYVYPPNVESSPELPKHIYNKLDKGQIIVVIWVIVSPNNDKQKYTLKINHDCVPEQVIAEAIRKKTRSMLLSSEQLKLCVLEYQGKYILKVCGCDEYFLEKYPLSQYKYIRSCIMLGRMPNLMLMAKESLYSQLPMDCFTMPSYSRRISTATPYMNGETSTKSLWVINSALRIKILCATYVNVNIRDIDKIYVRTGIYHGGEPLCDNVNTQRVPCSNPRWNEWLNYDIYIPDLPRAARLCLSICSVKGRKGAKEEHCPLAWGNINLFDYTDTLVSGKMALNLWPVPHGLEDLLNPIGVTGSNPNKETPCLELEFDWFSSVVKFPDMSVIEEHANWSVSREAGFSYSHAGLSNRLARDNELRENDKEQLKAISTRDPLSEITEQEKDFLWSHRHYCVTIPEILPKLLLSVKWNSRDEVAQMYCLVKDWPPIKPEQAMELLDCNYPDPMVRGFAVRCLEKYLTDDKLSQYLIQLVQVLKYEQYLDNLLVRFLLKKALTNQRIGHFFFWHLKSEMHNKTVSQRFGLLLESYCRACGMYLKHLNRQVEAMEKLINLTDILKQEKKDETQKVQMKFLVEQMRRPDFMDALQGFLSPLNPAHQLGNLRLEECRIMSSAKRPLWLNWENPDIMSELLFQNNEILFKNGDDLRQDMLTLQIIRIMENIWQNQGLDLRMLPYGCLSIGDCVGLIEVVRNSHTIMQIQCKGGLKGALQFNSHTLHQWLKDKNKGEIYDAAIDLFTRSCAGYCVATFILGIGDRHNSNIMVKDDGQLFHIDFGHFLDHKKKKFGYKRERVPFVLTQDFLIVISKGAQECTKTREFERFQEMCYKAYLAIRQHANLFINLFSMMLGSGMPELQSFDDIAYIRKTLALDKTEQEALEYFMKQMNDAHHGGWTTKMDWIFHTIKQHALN
The subject of experiment [14] is Phosphatidylinositol 4,5-bisphosphate 3-kinase catalytic subunit alpha isoform (Homo sapiens), P42336 [E545A]. The description is as §1. The settings on record: at 10 µM.
Experiment [15] has as its system Phosphatidylinositol 4,5-bisphosphate 3-kinase catalytic subunit alpha isoform (Homo sapiens), P42336 [Q546K]. The experiment is described as §1. The settings on record: at 10 µM.
The test system of experiment [16] is Phosphatidylinositol 4,5-bisphosphate 3-kinase catalytic subunit alpha isoform (Homo sapiens), P42336 [H1047L]. The experiment is described as §1. The note with it: at 10 µM.
Experiment [17] concerns Phosphatidylinositol 4,5-bisphosphate 3-kinase catalytic subunit alpha isoform (Homo sapiens), P42336 [H1047Y]. Described as §1. The note with it: at 10 µM.
Experiment [18] deals with Phosphatidylinositol 4,5-bisphosphate 3-kinase catalytic subunit alpha isoform (Homo sapiens), P42336 [E545K]. Described as §1. The note with it: at 10 µM.

Chain of Mitogen-activated protein kinase 7 (Homo sapiens) (Q13164 2-816 limits assumed): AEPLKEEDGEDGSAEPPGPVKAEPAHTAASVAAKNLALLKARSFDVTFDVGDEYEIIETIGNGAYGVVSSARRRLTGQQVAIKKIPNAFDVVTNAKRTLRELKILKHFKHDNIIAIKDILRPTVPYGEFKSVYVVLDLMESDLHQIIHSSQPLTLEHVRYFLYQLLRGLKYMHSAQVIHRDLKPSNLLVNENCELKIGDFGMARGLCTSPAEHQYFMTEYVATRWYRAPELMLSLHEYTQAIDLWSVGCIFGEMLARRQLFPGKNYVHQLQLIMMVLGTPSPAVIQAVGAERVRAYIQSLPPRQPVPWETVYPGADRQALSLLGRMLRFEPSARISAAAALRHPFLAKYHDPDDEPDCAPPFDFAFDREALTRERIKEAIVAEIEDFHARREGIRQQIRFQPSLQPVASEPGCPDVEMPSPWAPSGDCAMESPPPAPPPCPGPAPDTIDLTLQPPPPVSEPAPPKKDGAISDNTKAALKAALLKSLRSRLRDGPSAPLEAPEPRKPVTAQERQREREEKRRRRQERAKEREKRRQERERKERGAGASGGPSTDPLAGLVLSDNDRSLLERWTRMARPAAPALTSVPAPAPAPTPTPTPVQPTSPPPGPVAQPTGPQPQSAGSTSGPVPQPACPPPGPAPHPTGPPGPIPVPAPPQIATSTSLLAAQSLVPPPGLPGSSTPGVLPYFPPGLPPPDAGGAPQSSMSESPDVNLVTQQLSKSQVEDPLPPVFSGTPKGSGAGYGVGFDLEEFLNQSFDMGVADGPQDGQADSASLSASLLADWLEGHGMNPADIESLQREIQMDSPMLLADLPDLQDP
Chain of Insulin receptor (P06213 28-758 limits assumed): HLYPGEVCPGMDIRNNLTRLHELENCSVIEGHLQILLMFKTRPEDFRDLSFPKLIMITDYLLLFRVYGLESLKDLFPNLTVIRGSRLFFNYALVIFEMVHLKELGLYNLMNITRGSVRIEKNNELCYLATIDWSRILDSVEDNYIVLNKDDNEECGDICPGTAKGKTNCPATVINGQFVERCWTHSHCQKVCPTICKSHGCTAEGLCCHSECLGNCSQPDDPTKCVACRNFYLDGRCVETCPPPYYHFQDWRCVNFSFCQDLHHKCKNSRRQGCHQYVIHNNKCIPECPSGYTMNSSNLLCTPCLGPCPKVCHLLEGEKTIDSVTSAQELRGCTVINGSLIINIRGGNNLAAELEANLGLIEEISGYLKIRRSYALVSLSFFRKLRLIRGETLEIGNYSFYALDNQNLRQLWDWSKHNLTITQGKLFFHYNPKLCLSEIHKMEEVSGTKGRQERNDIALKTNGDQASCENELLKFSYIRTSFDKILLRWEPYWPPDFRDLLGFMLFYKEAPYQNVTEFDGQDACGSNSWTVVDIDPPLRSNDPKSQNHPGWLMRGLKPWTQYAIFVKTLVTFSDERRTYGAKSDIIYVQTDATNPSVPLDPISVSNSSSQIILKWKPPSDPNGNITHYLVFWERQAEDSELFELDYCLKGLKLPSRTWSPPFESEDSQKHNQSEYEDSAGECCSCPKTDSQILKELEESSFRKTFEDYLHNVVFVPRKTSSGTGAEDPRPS
Chain of Insulin receptor (P06213 763-1382 limits assumed): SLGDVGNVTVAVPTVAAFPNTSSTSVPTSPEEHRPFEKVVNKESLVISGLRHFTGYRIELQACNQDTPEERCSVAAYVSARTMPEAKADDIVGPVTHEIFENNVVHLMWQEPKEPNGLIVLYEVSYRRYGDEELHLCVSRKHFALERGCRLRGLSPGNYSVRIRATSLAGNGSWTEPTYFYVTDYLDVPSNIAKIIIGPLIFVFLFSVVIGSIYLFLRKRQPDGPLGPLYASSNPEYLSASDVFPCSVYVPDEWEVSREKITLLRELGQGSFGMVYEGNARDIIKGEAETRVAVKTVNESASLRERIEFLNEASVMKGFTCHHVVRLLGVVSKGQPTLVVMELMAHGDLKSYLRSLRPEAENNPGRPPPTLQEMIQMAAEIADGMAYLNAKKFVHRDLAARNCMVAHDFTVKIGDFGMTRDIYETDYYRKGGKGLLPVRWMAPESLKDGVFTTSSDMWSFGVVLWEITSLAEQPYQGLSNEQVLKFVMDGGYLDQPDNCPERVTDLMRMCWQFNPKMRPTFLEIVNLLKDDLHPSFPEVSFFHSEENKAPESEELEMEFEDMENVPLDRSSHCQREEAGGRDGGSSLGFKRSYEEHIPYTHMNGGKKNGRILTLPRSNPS

In [1], `COCC(=O)NC/C=C/c1ccc2ncnc(Nc3ccc(Oc4ccc(C)nc4)c(C)c3)c2c1` [CP-724714] had a % of control of 100%.
Turning to `O=C(NOC[C@H](O)CO)c1ccc(F)c(F)c1Nc1ccc(I)cc1F`, the % of control in experiment [2] worked out at 84%; in experiment [3], 49%; in experiment [4], 92%.
On to `CNC(=O)Nc1ccc(-c2nc(N3CC4CCC(C3)O4)c3cnn(C4CCC5(CC4)OCCO5)c3n2)cc1`, for which the % of control in experiment [5] came out at 100%.
In the case of `CC[C@@H]1[C@H](F)C(=O)N[C@@H]1COc1nccc2cc(C(N)=O)c(OC)cc12` [ZIMLOVISERTIB], the values for the % of inhibition in experiment [6] and in experiment [7] were 7.68% and 13.3%, respectively.
For the molecule `CN1Cc2nccc(-c3cn(C)nc3-c3ccc(F)cc3)c2C1=O`, half-maximal inhibition in experiment [8] (IC50) required 10 µM. This counts as double-digit micromolar.
As to `C=CC(=O)Nc1cccc(C(=O)Nc2ccc(Nc3cc(-c4[nH]c(SC)nc4C)ccn3)cc2)c1`, the % of control in experiment [9] (at 1 µM) came out at 83%; in [9] (at 5 µM), 73%.
In the case of `CCC(=O)N1CC[C@H](Nc2ncnc3c2CN(c2cnc(OC)c(C(F)(F)F)c2)CC3)C1` [LENIOLISIB], in experiment [10], the IC50 (commonly the concentration that gives 50% inhibition) is more than 10 µM.
For `CN(C)CCOc1ccc(-c2nc(-c3ccncc3)c(-c3ccc4c(c3)CC/C4=N\O)[nH]2)cc1`, the % of control in experiment [11] came out at 100%; in experiment [12], 84%; in experiment [13], 81%; in experiment [14], 83%; in [15], 81%; in [16], 98%. Moreover, the % of control is 88% in [17] and 100% in experiment [18].
